Data reported in ChEMBL document CHEMBL3885881, “DrugMatrix”.

Species: Rattus norvegicus
Assay: DrugMatrix - Regimen: Daily Repeat
Format: toxicity, organism-based, Sprague-Dawley
Design: regimen Daily Repeat, gender Male, age 6-8 weeks
Conditions: in vivo, po, route oral GAVAGE, vehicle .5 % CMC; for ABSOLUTE BASOPHIL / ABSOLUTE EOSINOPHIL / ABSOLUTE LYMPHOCYTE / ABSOLUTE MONOCYTE / ABSOLUTE SEGMENTED NEUTROPHIL / BASOPHIL / EOSINOPHIL / ERYTHROCYTE COUNT / HEMATOCRIT / HEMOGLOBIN / LEUKOCYTE COUNT / LYMPHOCYTE / MEAN CORPUSCULAR HEMOGLOBIN / MEAN CORPUSCULAR HEMOGLOBIN CONCENTRATION / MEAN CORPUSCULAR VOLUME / MONOCYTE / NEUTROPHIL / NUCLEATED RED BLOOD CELLS / PLATELET COUNT: tissue Blood; for ALANINE AMINOTRANSFERASE / ALBUMIN / ALKALINE PHOSPHATASE / ASPARTATE AMINOTRANSFERASE / BLOOD UREA NITROGEN / CARBON DIOXIDE / CHLORIDE / CHOLESTEROL / CREATINE PHOSPHOKINASE / CREATININE / GLUCOSE / LACTATE DEHYDROGENASE / LIPASE / PHOSPHORUS / POTASSIUM / SODIUM / TOTAL BILIRUBIN / TOTAL PROTEIN / URIC ACID: tissue Plasma
[1] = 0 mg/kg, 72 h, dose level Control, time 3 day
[2] = 0 mg/kg, 120 h, dose level Control, time 5 day
[3] = 15 mg/kg, 72 h, dose level Low, time 3 day
[4] = 15 mg/kg, 120 h, dose level Low, time 5 day

C[C@@H]1O[C@@H](O[C@H]2C[C@@H](O)[C@]3(CO)[C@H]4[C@H](O)C[C@]5(C)[C@@H](C6=CC(=O)OC6)CC[C@]5(O)[C@@H]4CC[C@]3(O)C2)[C@H](O)[C@H](O)[C@H]1O [OUABAIN]
ABSOLUTE BASOPHIL [1]: 0 CELLS/uL
ABSOLUTE EOSINOPHIL [1]: 130.33 CELLS/uL
ABSOLUTE LYMPHOCYTE [1]: 10030.67 CELLS/uL
ABSOLUTE MONOCYTE [1]: 41 CELLS/uL
ABSOLUTE SEGMENTED NEUTROPHIL [1]: 1298 CELLS/uL
BASOPHIL [1]: 0%
EOSINOPHIL [1]: 1%
ERYTHROCYTE COUNT [1]: 5.22 x10E6/uL
HEMATOCRIT [1]: 33.53%
HEMOGLOBIN [1]: 12.73 G/DL
LEUKOCYTE COUNT [1]: 11.5 x10E3/uL
LYMPHOCYTE [1]: 87.67%
MEAN CORPUSCULAR HEMOGLOBIN [1]: 24.45 pg
MEAN CORPUSCULAR HEMOGLOBIN CONCENTRATION [1]: 37.97 G/DL
MEAN CORPUSCULAR VOLUME [1]: 64.33 fL
MONOCYTE [1]: 0.33%
NEUTROPHIL [1]: 11%
NUCLEATED RED BLOOD CELLS [1]: 0 /100WBC
PLATELET COUNT [1]: 1310.5 x10E3/uL
ALANINE AMINOTRANSFERASE [1]: 52 u/L
ALBUMIN [1]: 4.22 G/DL
ALKALINE PHOSPHATASE [1]: 340.17 u/L
ASPARTATE AMINOTRANSFERASE [1]: 87.5 u/L
BLOOD UREA NITROGEN [1]: 15.17 mg/dL
CARBON DIOXIDE [1]: 25.5 mmol/L
CHLORIDE [1]: 101.83 MEQ/L
CHOLESTEROL [1]: 68.17 mg/dL
CREATINE PHOSPHOKINASE [1]: 379.67 u/L
CREATININE [1]: 0.17 mg/dL
GLUCOSE [1]: 181.67 mg/dL
LACTATE DEHYDROGENASE [1]: 256.17 u/L
LIPASE [1]: 8 u/L
PHOSPHORUS [1]: 12.1 mg/dL
POTASSIUM [1]: 5.88 MEQ/L
SODIUM [1]: 143.67 MEQ/L
TOTAL BILIRUBIN [1]: 0.18 mg/dL
TOTAL PROTEIN [1]: 5.92 G/DL
URIC ACID [1]: 1.7 mg/dL
ABSOLUTE BASOPHIL [2]: 0 CELLS/uL
ABSOLUTE EOSINOPHIL [2]: 31 CELLS/uL
ABSOLUTE LYMPHOCYTE [2]: 9599.17 CELLS/uL
ABSOLUTE MONOCYTE [2]: 52.83 CELLS/uL
ABSOLUTE SEGMENTED NEUTROPHIL [2]: 1050.33 CELLS/uL
BASOPHIL [2]: 0%
EOSINOPHIL [2]: 0.33%
ERYTHROCYTE COUNT [2]: 5.53 x10E6/uL
HEMATOCRIT [2]: 35.8%
HEMOGLOBIN [2]: 13.53 G/DL
LEUKOCYTE COUNT [2]: 10.73 x10E3/uL
LYMPHOCYTE [2]: 89%
MEAN CORPUSCULAR HEMOGLOBIN [2]: 24.47 pg
MEAN CORPUSCULAR HEMOGLOBIN CONCENTRATION [2]: 37.82 G/DL
MEAN CORPUSCULAR VOLUME [2]: 64.7 fL
MONOCYTE [2]: 0.5%
NEUTROPHIL [2]: 10.17%
NUCLEATED RED BLOOD CELLS [2]: 0 /100WBC
PLATELET COUNT [2]: 1028.5 x10E3/uL
ALANINE AMINOTRANSFERASE [2]: 45.33 u/L
ALBUMIN [2]: 4.33 G/DL
ALKALINE PHOSPHATASE [2]: 351.83 u/L
ASPARTATE AMINOTRANSFERASE [2]: 73.5 u/L
BLOOD UREA NITROGEN [2]: 17.83 mg/dL
CARBON DIOXIDE [2]: 24.67 mmol/L
CHLORIDE [2]: 100 MEQ/L
CHOLESTEROL [2]: 67 mg/dL
CREATINE PHOSPHOKINASE [2]: 284 u/L
CREATININE [2]: 0.2 mg/dL
GLUCOSE [2]: 152.33 mg/dL
LACTATE DEHYDROGENASE [2]: 108.67 u/L
LIPASE [2]: 8.17 u/L
PHOSPHORUS [2]: 11.17 mg/dL
POTASSIUM [2]: 6.14 MEQ/L
SODIUM [2]: 144.68 MEQ/L
TOTAL BILIRUBIN [2]: 0.22 mg/dL
TOTAL PROTEIN [2]: 6.08 G/DL
URIC ACID [2]: 1.27 mg/dL
ABSOLUTE BASOPHIL [3]: 0 CELLS/uL
ABSOLUTE EOSINOPHIL [3]: 189.33 CELLS/uL
ABSOLUTE LYMPHOCYTE [3]: 10886.33 CELLS/uL
ABSOLUTE MONOCYTE [3]: 47.33 CELLS/uL
ABSOLUTE SEGMENTED NEUTROPHIL [3]: 1443.67 CELLS/uL
BASOPHIL [3]: 0%
EOSINOPHIL [3]: 1.33%
ERYTHROCYTE COUNT [3]: 5.55 x10E6/uL
HEMATOCRIT [3]: 35.67%
HEMOGLOBIN [3]: 13.2 G/DL
LEUKOCYTE COUNT [3]: 12.57 x10E3/uL
LYMPHOCYTE [3]: 86.67%
MEAN CORPUSCULAR HEMOGLOBIN [3]: 23.77 pg
MEAN CORPUSCULAR HEMOGLOBIN CONCENTRATION [3]: 37 G/DL
MEAN CORPUSCULAR VOLUME [3]: 64.2 fL
MONOCYTE [3]: 0.33%
NEUTROPHIL [3]: 11.67%
NUCLEATED RED BLOOD CELLS [3]: 0 /100WBC
PLATELET COUNT [3]: 1296 x10E3/uL
ALANINE AMINOTRANSFERASE [3]: 52.67 u/L
ALBUMIN [3]: 4.2 G/DL
ALKALINE PHOSPHATASE [3]: 382.67 u/L
ASPARTATE AMINOTRANSFERASE [3]: 73.67 u/L
BLOOD UREA NITROGEN [3]: 15 mg/dL
CARBON DIOXIDE [3]: 27 mmol/L
CHLORIDE [3]: 99 MEQ/L
CHOLESTEROL [3]: 70.33 mg/dL
CREATINE PHOSPHOKINASE [3]: 215.33 u/L
CREATININE [3]: 0.16 mg/dL
GLUCOSE [3]: 166.33 mg/dL
LACTATE DEHYDROGENASE [3]: 88 u/L
LIPASE [3]: 8 u/L
PHOSPHORUS [3]: 12.23 mg/dL
POTASSIUM [3]: 6.54 MEQ/L
SODIUM [3]: 144.1 MEQ/L
TOTAL BILIRUBIN [3]: 0.27 mg/dL
TOTAL PROTEIN [3]: 5.93 G/DL
URIC ACID [3]: 1.97 mg/dL
ABSOLUTE BASOPHIL [4]: 0 CELLS/uL
ABSOLUTE EOSINOPHIL [4]: 66.67 CELLS/uL
ABSOLUTE LYMPHOCYTE [4]: 12127.33 CELLS/uL
ABSOLUTE MONOCYTE [4]: 105.67 CELLS/uL
ABSOLUTE SEGMENTED NEUTROPHIL [4]: 1600.33 CELLS/uL
BASOPHIL [4]: 0%
EOSINOPHIL [4]: 0.67%
ERYTHROCYTE COUNT [4]: 5.76 x10E6/uL
HEMATOCRIT [4]: 36.63%
HEMOGLOBIN [4]: 13.7 G/DL
LEUKOCYTE COUNT [4]: 13.9 x10E3/uL
LYMPHOCYTE [4]: 88.33%
MEAN CORPUSCULAR HEMOGLOBIN [4]: 23.77 pg
MEAN CORPUSCULAR HEMOGLOBIN CONCENTRATION [4]: 37.4 G/DL
MEAN CORPUSCULAR VOLUME [4]: 63.6 fL
MONOCYTE [4]: 0.67%
NEUTROPHIL [4]: 10.33%
NUCLEATED RED BLOOD CELLS [4]: 0 /100WBC
PLATELET COUNT [4]: 1337.67 x10E3/uL
ALANINE AMINOTRANSFERASE [4]: 44 u/L
ALBUMIN [4]: 4.3 G/DL
ALKALINE PHOSPHATASE [4]: 417.67 u/L
ASPARTATE AMINOTRANSFERASE [4]: 84.33 u/L
BLOOD UREA NITROGEN [4]: 17.33 mg/dL
CARBON DIOXIDE [4]: 25.67 mmol/L
CHLORIDE [4]: 102.33 MEQ/L
CHOLESTEROL [4]: 74.67 mg/dL
CREATINE PHOSPHOKINASE [4]: 260 u/L
CREATININE [4]: 0.26 mg/dL
GLUCOSE [4]: 167.33 mg/dL
LACTATE DEHYDROGENASE [4]: 187.67 u/L
LIPASE [4]: 8.67 u/L
PHOSPHORUS [4]: 11.83 mg/dL
POTASSIUM [4]: 6.55 MEQ/L
SODIUM [4]: 145.07 MEQ/L
TOTAL BILIRUBIN [4]: 0.17 mg/dL
TOTAL PROTEIN [4]: 6.2 G/DL
URIC ACID [4]: 1.8 mg/dL
